We go through 5 compounds from article PMC5540250, “Influence of the Number of Axial Bexarotene Ligands on the Cytotoxicity of Pt(IV) Analogs of Oxaliplatin” (Bioinorganic Chemistry and Applications, 2017).

Assay [1] deals with human MCF7 breast cancer cell line. Briefly: MTT cytotoxicity test, 72 h, MCF7. The format is cell-based. The note with it: MCF7 cells, mean ± standard deviation from 3 independent experiments. The method, then: (§1) The MCF7, MCF7D (gift of N. I. Moiseeva), HaCat, A549, and SW480 cell lines were cultured in Dulbecco modified Eagle's medium (DMEM; PanEco, Russia) with 10% fetal bovine serum (HyClone, USA) and antibiotics (PanEco, Russia) in 5% CO2, 37°C. The compounds were predissolved at 20 mM in dimethyl sulfoxide (DMSO) and added to the cell culture at the required concentration with maximum DMSO content of 0.5 v/v%. Cells in 96-well plates (7 × 10^3 cells/well) were treated with various concentrations of 3, 4, cisplatin, or bexarotene at 37°C for 72 h. Cell viability was determined using the MTT assay as follows: cells were incubated at 37°C for 4 h with 20 μl of 5 mg/ml solution of 3-(4,5-dimethylthiazol-2-yl)-2,5 diphenyltetrazolium bromide (Sigma-Aldrich, St. Louis, USA). The supernatant was discarded and formazan was dissolved in 150 μl of DMSO. The optical density of the solution was measured at 550 nm on a multiwell plate reader (Multiskan FC, Thermo Fisher Scientific, USA). The percentage of viable (i.e., MTT converting) cells was calculated from the absorbance of untreated cells (100%). Each experiment was repeated three times, and each concentration was tested in three replicates.
(§2) The cytotoxicity of complexes 3 and 4, bexarotene, and cisplatin was evaluated in the human MCF7 breast cancer cell line and its doxorubicin/cisplatin resistant subline MCF7D, as well as against colon carcinoma SW480 cells, non-small cell lung carcinoma A549, and immortalized human nonmalignant keratinocyte HaCat cell line using the colorimetric MTT-test after 72 h of incubation (Table 1). The cytotoxic potency of oxaliplatin, the Pt(II) precursor of the new complexes, was taken from literature.
(In general: Formazan colour is commonly taken as a measure of viable cells.)

The subject of assay [2] is colon carcinoma SW480 cells. Briefly: MTT cytotoxicity test, 72 h, SW480. The format is cell-based, human. The note with it: mean ± standard deviation from 3 independent experiments. The method, then:
as §1, §2

For assay [3], the system named is non-small cell lung carcinoma A549. In words: MTT cytotoxicity test, 72 h, A549. The format is cell-based, human. The note with it: A549 cells, mean ± standard deviation from 3 independent experiments. The method, then:
as §1, §2

Assay [4] deals with immortalized human nonmalignant keratinocyte HaCat cell line. In words: MTT cytotoxicity test, 72 h, HaCat. The format is cell-based. The conditions noted are these: HaCat nonmalignant keratinocytes, mean ± standard deviation from 3 independent experiments. The method, then:
as §1, §2

Assay [5] deals with doxorubicin/cisplatin resistant subline MCF7D. Briefly: MTT cytotoxicity test, 72 h, MCF7D. It is filed as cell-based, human. The conditions noted are these: MCF7D cells (doxorubicin/cisplatin resistant), mean ± standard deviation from 3 independent experiments. The method, then: as §1, §2
Assay [6] deals with non-small cell lung carcinoma A549. On the set-up: method as in PMID 22331606. The note with it: A549 cells; taken from literature; cited from earlier work.
The subject of assay [7] is colon carcinoma SW480 cells. On the set-up: method as in PMID 22331606. The conditions noted are these: taken from literature; cited from earlier work.
The subject of assay [8] is human MCF7 breast cancer cell line. On the set-up: method as in PMID 22213516. The conditions noted are these: MCF7 cells; taken from literature; cited from earlier work.

In general, IC50 refers to the concentration that gives 50% inhibition.

Where two headings read alike, the source gives them in different places.

On to `C=C(c1ccc(C(=O)O)cc1)c1cc2c(cc1C)C(C)(C)CCC2(C)C` [Bexarotene, 4-(1-(3,5,5,8,8-pentamethyl-5,6,7,8-tetrahydro-2-naphthyl)vinyl)benzoic acid], for which the IC50 in assay [1] (Homo sapiens) is 67 ± 13 µM; in assay [2] (Homo sapiens), 80 ± 10 µM; in assay [3] (Homo sapiens) it was 85 ± 9 µM; in assay [4] (Homo sapiens) it was over 90 µM; in assay [5] (Homo sapiens), 71 ± 21 µM.
`N.N.[Cl][Pt][Cl]` [Cisplatin]: the half-maximal inhibitory concentration (IC50) in assay [1] came out at 14 ± 7 µM; in assay [2], 14 ± 4.4 µM; in assay [3], 29 ± 10 µM; in assay [4], 30 ± 10 µM; in assay [5], 75 ± 5.8 µM.
Turning to `O=C(O)C(=O)O.[NH-][C@@H]1CCCC[C@H]1[NH-].[Pt+2]` [Oxaliplatin], the concentration for half-maximal inhibition (IC50) in assay [6] is 11.5 ± 3.9 µM; in assay [7], 900 ± 300 nM; in assay [8], 43.8 µM.
With “(OC-6-33)-(trans-1R,2R-Diaminocyclohexane)-bis(4-(1-(3,5,5,8,8-pentamethyl-5,6,7,8-tetrahydro-2-naphthyl)vinyl)benzoato)oxalatoplatinum(IV) [Complex 3]”, the half-inhibitory concentration (IC50) in assay [1] was over 100 µM; in assay [2] it was over 100 µM; in assay [3], 83 ± 16 µM; in assay [4] it was over 100 µM; in assay [5], over 100 µM.
For “(OC-6-44)-acetato(trans-1R,2R-Diamineocyclohexane)-4-(1-(3,5,5,8,8-pentamethyl-5,6,7,8-tetrahydro-2-naphthyl)vinyl)benzoato)oxalatoplatinum(IV) [Complex 4]”, the concentration for half-maximal inhibition (IC50) amounted to 0.47 ± 0.07 µM in assay [1]; 11 ± 1.6 µM in assay [2]; 10 ± 1 µM in assay [3]; 8 ± 1.3 µM in assay [4]; 4.8 ± 0.5 µM in assay [5]. For the same compound, the “IC50 MCF7” value in assay [1] is given as “submicromolar range”.
